Consider 5 compounds from article PMC4422656, “Structural Basis Underlying the Binding Preference of Human Galectins-1, -3 and -7 for Galβ1-3/4GlcNAc” (PLoS ONE, 2015).

pKd: −log10 of the molar value. “And” between values parts separate entries of the source, which are not always exact repeats. Identical values can stand only once.

Assay [1] has as its system hGal1. Also noted: method as in PMID 23124203. The note with it: in the presence of λ5-UR peptide of pre-BCR; cited from earlier work.
The target of assay [2] is T1, hGal3-E165A (Homo sapiens, UniProt P17931, E165A).
T1 construct: the full-length hGal1 (residues 1–135), 3 (residues 1–250); 6xHis (N); made in house; host or cells: Escherichia coli BL21 (DE3)
T1 sequence (P17931 whole entry E165A, the tested form may be a part): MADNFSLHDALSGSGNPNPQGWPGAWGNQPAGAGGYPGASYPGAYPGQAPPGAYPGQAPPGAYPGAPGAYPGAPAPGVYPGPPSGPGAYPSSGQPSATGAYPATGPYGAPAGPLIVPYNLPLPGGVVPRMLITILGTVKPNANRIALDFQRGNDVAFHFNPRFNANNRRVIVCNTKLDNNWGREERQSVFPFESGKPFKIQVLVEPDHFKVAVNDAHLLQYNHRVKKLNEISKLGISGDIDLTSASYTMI
Description: Biolayer interferometry, LN1/LN2 binding affinity. The note with it: for Reduction of binding affinity of hGal3-E165A: hGal3-E165A versus wild-type hGal3, from Table 1 Kd BI; for pKd: Biolayer Interferometry at 300 K, steady-state, read-out: Dissociation constant Kd (Kd BI). The source says: (§1) Using a standard PCR-based cloning strategy, the coding region of the full-length hGal1 (residues 1–135), 3 (residues 1–250), 7 (residues 1–136) and CRD domain of hGal3 (residues 113–250) were generated and inserted into modified pET-15b (hGal1, hGal3 and hGal3-CRD) or pET-28a (hGal7) vector (Novagen) with in-frame N- and C-terminal 6xHis-tag, respectively. QuikChange mutagenesis method (Agilent Technologies) was applied to replace the corresponding codons of residues Glu165 and Arg186 in full-length hGal3 with Ala codon to allow the expression of mutant proteins hGal3-E165A and hGal3-R186A. All the wild type and mutated proteins were produced in Escherichia coli BL21 (DE3), with 0.5 mM IPTG induction for 16 h at 20 °C. Recombinant proteins were purified by Ni^2+-affinity and size-exclusion chromatography to homogeneity. Purified proteins were then stored in gel-filtration buffer (25 mM Tris-HCl pH8.0, 300 mM NaCl and 5 mM β-mercaptoethanol) and concentrated to ~ 4, 20 and 9 mg/ml as determined by the method of Bradford for both Biolayer interferometry experiments and crystallization trials, respectively.
(§2) Specifically, biotinylated galectins were prepared according to the standard protocol (provided by FortéBio), and adjusted to final concentration of 1 μM in assay buffer condition (50 mM Tris-HCl pH 7.5, 300 mM NaCl and 5 mM β-mercaptoethanol). Biotinylated galectins were then immobilized on Super Streptavidin Biosensors (FortéBio, Inc.), while free streptavidin sites on biosensor were then blocked by incubation with biocytin (10 mg/ml) to avoid non-specific interactions. […] Measurements were followed by 120 sec baseline step, 60 sec association step and 200 sec dissociation step. Baseline and dissociation steps were carried out in assay buffer only. All the data were processed and calculated using Fortebio software and the steady-state K d values were derived from equilibrium responses (S1 Fig) and summarized in Table 1. Two additional parallel Super Streptavidin biosensors were coated with biotinylated galectin and biocytin, separately, and only incubated with assay buffer as double reference controls.

The target in assay [3] is T2, hGal3-R186A (Homo sapiens, UniProt P17931, R186A).
T2 construct: the full-length hGal1 (residues 1–135), 3 (residues 1–250); 6xHis (N); made in house; host or cells: Escherichia coli BL21 (DE3)
T2 sequence (P17931 whole entry R186A, the tested form may be a part): as the sequence (P17931 whole entry E165A, the tested form may be a part) above, with A165E, R186A counted along it
Briefly: Biolayer interferometry, LN1/LN2 binding affinity. The note with it: hGal3-R186A mutant.
Description: as §1, §2

In assay [4] the target is T3, human galectin-1 (hGal1) (Homo sapiens, UniProt P09382).
T3 construct: the full-length hGal1 (residues 1–135); 6xHis (N); made in house; host or cells: Escherichia coli BL21 (DE3)
T3 sequence (P09382 whole entry, the tested form may be a part): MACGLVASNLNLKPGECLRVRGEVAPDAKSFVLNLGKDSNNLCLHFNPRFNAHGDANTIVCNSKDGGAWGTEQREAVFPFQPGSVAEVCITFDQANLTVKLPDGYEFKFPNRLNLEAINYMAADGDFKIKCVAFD
Briefly: Biolayer interferometry, LN1/LN2 binding affinity. The note with it: for pKd: Biolayer Interferometry at 300 K, steady-state, read-out: Dissociation constant Kd (Kd BI).
Description: as §1, §2

Assay [5] has as its target T4, human galectin-3 (hGal3, full-length) (Homo sapiens, UniProt P17931).
T4 construct: the full-length hGal1 (residues 1–135), 3 (residues 1–250); 6xHis (N); made in house; host or cells: Escherichia coli BL21 (DE3)
Description: Biolayer interferometry, LN1/LN2 binding affinity. The note with it: for pKd: Biolayer Interferometry at 300 K, steady-state, read-out: Dissociation constant Kd (Kd BI).
Description: as §1, §2

The target of assay [6] is T5, human galectin-7 (hGal7) (Homo sapiens, UniProt P47929).
T5 construct: 7 (residues 1–136); 6xHis (C); made in house; host or cells: Escherichia coli BL21 (DE3)
T5 sequence (P47929 whole entry, the tested form may be a part): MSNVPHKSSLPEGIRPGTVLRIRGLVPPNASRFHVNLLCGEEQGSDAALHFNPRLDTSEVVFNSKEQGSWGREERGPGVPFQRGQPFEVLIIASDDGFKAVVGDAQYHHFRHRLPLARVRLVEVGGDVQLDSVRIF
Description: Biolayer interferometry, LN1/LN2 binding affinity. The note with it: for pKd: Biolayer Interferometry at 300 K, steady-state, read-out: Dissociation constant Kd (Kd BI).
Description: as §1, §2

Assay [7] concerns the target T3, human galectin-1 (hGal1). Description: Fluorescence polarization (FP)-based competition binding assay. The note with it: for pKd: fluorescence anisotropy at 277 K, competition with LN2-FITC probe, read-out: Dissociation constant Kd (Kd FP). As for the experimental part: (§3) The measurement of FP-based assay is based on the rotation speed of a fluorophore-containing compound bound to the protein counterpart (e.g. galectins in this study). The fluorophore rotates at a slower rate than when it is unbound, and the resulting fluorescence polarization is higher. In this study we carried out all measurements according to reported procedures. […] All the measurements were conducted in Tris buffer (12.5 mM, pH 7.4) with 200 mM NaCl and 5 mM β-mercaptoethanol at 4 °C. Data plotting, nonlinear regression analysis, and curve construction was done by Prism 5.0 software (GraphPad, San Diego, CA).
(§4) The measured anisotropy value with competitor (Acompetitor) is used to calculate the amount of galectin-bound probe [PG] according to equation:
(§5) [PG]=[(Acompetitor−A0)∕(Amax−A0)]×[P]total.−

Assay [8] has as its target T6, human galectin-3 (hGal3) (Homo sapiens, UniProt P17931).
T6 construct: the full-length hGal1 (residues 1–135), 3 (residues 1–250); 6xHis (N); made in house; host or cells: Escherichia coli BL21 (DE3)
Described as above. The note with it: for pKd: fluorescence anisotropy at 277 K, competition with LN2-FITC probe, read-out: Dissociation constant Kd (Kd FP). As for the experimental part: as §3, §4, §5

Assay [9] addresses T5, human galectin-7 (hGal7). Described as above. The note with it: for pKd: fluorescence anisotropy at 277 K, competition with LN2-FITC probe, read-out: Dissociation constant Kd (Kd FP). The protocol: as §3, §4, §5
Assay [10] relates to hGal1. Also noted: method as in PMID 12223272. The note with it: LN1 versus LN2; cited from earlier work.
Assay [11] has as its system CRD domain of hGal3. Also noted: method as in PMID 12223272. The note with it: CRD domain used instead of full-length hGal3; LN1 versus LN2; cited from earlier work.
Assay [12] relates to hGal7. Also noted: method as in PMID 12223272. The note with it: cited from earlier work.
Assay [13] has as its system rat galectin-2. Also noted: method as in PMID 12223272. The note with it: cited from earlier work.
Assay [14] relates to hGal3. More on the design: method as in PMID 21949831. The note with it: cited from earlier work.
The subject of assay [15] is hGal1. More on the design: method as in PMID 21949831. The note with it: cited from earlier work.
The mark [16] stands for this setting: based on Kd BI values, LN1 versus LN2.
Setting [17] is: based on Kd FP values, LN1 versus LN2.

T4 sequence (P17931 whole entry, the tested form may be a part): as the sequence (P17931 whole entry E165A, the tested form may be a part) above, with A165E counted along it
T6 sequence (P17931 whole entry, the tested form may be a part): as the sequence (P17931 whole entry E165A, the tested form may be a part) above, with A165E counted along it

As for `CC(=O)N[C@H]1[C@H](O[C@H]2[C@@H](O)[C@@H](CO)O[C@@H](O[C@H]3[C@H](O)[C@@H](O)C(O)O[C@@H]3CO)[C@@H]2O)O[C@H](CO)[C@@H](O[C@@H]2O[C@H](CO)[C@H](O)[C@H](O)[C@H]2O)[C@@H]1O` (mixture of isomers) [Lacto-N-neotetraose (LNnT), Lacto-N-neotetraose], the “Decrease of hGal1 binding” value in assay [1] is listed as 3 fold.

In the case of `CC(=O)NC1C(O)OC(CO)C(O)C1OC1OC(CO)C(O)C(O)C1O` (stereo not shown) [LN1, Galβ1-3GlcNAc], the “Reduction of binding affinity of hGal3-E165A” value in assay [2] is 2.5 fold. For the same compound, the pKd in assay [2] (hGal3-E165A) was 3.64; in assay [4] it was ~3.47 and 3.47; in [5] it was ~4.03 and 4.03; in [6] it was ~3.57 and 3.57; in [7] it was 5.17; in assay [8], 5.84. In addition, in [9], the pKd is 5.18. Further, the “LN1/LN2 ratio (Kd LN1/Kd LN2)” value is 1.22 and 1.22 ^2 in assay [2] (hGal3-E165A, based on Kd BI values, LN1 versus LN2); 0.44 in assay [4] (setting [16]); 0.35 in assay [5] (setting [16]); 1.52 in [6] (setting [16]); 0.53 in assay [7] (setting [17]); 0.23 in [8] (setting [17]). The “LN1/LN2 ratio (Kd LN1/Kd LN2)” value in assay [9] (setting [17]) was found to be 2.97. Further, the Binding ability result in assay [3] was “lose its binding ability”. Besides, the entries for the “LN1/LN2 ratio, previous study” value in assay [10], in [11] and in assay [12] (LN1 versus LN2) were 0.79, 0.65 ^5 and 2.7, respectively. Moreover, the LN1/LN2 binding preference entry in assay [12] and in assay [13] was “prominent LN1-preferred binding activity” each time.

As to `CC(=O)N[C@@H]1[C@@H](O)[C@H](O[C@@H]2O[C@H](CO)[C@H](O)[C@H](O)[C@H]2O)[C@@H](CO)O[C@H]1O` [LN2, Galβ1-4GlcNAc], in assay [2], the “Reduction of binding affinity of hGal3-E165A” value is recorded as 8.5 fold. Also, the pKd in [2] (hGal3-E165A) was 3.55; in [4] it was 3.82; in assay [5], ~4.48 and 4.48; in assay [6], ~3.39 and 3.39; in assay [7] it was 5.44; in assay [8], 6.48. Further, the negative-log Kd (pKd) in assay [9] is 4.71. The Binding ability result in assay [3] is “lose its binding ability”.

Take `CC(=O)N[C@H]1C(O)O[C@H](CO)[C@H](O)[C@@H]1O[C@@H]1O[C@H](CO)[C@H](O)[C@H](O)[C@H]1O` (stereo partly shown) [TF antigen, Galβ1-3GalNAc]: the “Binding with TF antigen” value is reported as “binds” in assay [14] and “not” in [15].

For `CC(=O)N[C@H]1[C@H]([C@H](O)[C@H](O)CO)O[C@@](O[C@H]2[C@@H](O)[C@@H](CO)O[C@@H](O[C@H]3[C@H](O)[C@@H](NC(C)=O)C(O)O[C@@H]3CO)[C@@H]2O)(C(=O)O)C[C@@H]1O` (stereo partly drawn) [α3-SiaLacNAc], the “Increase of hGal1 binding” value in [1] is 10 fold.
